{"source": "patent US20250186503A1", "about": "“METHODS AND COMBINATIONS FOR TREATMENT AND T CELL MODULATION” (Juno Therapeutics, Inc., priority 2018, published 2025)", "key": {"[1]": {"conditions": "given for five days followed by a two day rest period (5/7 days), subjects with DLBCL; cited from earlier work"}, "[2]": {"tested_on": "Raji and Granta-519 tumor cells", "assay": "CAR T function against Raji and Granta-519 tumor cells after concurrent treatment during chronic stimulation", "assay_type": "cell-based, human", "set-up": "dose or concentration left out as unconfirmed"}, "[3]": {"tested_on": "Granta-519 or Raji target cells", "assay": "Cytokine production and cytolytic activity of anti-CD19 CAR+ T cells with Granta-519 or Raji target cells", "assay_type": "cell-based, human", "procedure": "Similar studies as above were conducted using Granta-519 or Raji target cells to assess cytokine production and cytolytic activity of anti-CD19 CAR-expressing T cells upon co-culture with the target cells. As shown in FIG. 33B Raji cells were selected due to high expression of cell surface molecule CD19 when compared to Granta-519, as quantified by flow cytometry. Enumeration of CD19 was inferred by a standard curve generated using molecules of equivalent soluble fluorophore beads.\nAfter 24 hours of culture cytokine production was monitored in the supernatant. […] Cytolytic activity also was measured for pooled donors over time of the co-culture."}, "Ikaros": {"target": "T1, Ikaros (Homo sapiens, UniProt Q13422+Q96SW2)", "T1 construct": "intracellular levels of Ikaros in CD4+ CAR+ or CD8+ CAR+ cells; endogenous in cells; host or cells: primary human CD4+ and CD8+ T cells transduced with an anti-CD19 CAR (FMC63 scFv)", "T1 sequence (Q13422 whole entry)": "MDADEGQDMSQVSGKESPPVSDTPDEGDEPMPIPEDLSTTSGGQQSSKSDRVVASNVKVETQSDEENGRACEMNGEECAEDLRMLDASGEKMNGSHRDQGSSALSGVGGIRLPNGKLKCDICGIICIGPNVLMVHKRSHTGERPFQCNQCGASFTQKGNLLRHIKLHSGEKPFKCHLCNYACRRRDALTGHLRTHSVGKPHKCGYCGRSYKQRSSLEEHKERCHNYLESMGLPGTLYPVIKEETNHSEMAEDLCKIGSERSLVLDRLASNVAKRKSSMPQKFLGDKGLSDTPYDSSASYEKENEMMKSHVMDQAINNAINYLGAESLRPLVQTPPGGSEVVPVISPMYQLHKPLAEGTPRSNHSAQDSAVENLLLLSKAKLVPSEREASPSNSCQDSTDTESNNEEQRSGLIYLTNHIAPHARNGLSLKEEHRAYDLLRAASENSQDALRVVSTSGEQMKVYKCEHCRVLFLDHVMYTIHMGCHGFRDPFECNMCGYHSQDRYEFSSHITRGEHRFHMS", "T1 sequence (Q96SW2 whole entry)": "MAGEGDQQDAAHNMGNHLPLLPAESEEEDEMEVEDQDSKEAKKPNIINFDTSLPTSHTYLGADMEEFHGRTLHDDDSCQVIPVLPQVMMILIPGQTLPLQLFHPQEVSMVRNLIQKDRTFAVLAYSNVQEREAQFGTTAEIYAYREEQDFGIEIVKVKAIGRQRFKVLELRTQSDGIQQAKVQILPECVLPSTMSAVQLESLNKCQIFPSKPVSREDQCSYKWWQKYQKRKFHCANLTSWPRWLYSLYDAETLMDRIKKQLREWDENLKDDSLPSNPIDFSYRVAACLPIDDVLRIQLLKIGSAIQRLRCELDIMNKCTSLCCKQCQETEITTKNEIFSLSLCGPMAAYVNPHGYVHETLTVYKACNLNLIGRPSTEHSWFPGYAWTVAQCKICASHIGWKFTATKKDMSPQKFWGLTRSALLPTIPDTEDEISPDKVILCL", "T1 sequence (Q16531 whole entry partner)": "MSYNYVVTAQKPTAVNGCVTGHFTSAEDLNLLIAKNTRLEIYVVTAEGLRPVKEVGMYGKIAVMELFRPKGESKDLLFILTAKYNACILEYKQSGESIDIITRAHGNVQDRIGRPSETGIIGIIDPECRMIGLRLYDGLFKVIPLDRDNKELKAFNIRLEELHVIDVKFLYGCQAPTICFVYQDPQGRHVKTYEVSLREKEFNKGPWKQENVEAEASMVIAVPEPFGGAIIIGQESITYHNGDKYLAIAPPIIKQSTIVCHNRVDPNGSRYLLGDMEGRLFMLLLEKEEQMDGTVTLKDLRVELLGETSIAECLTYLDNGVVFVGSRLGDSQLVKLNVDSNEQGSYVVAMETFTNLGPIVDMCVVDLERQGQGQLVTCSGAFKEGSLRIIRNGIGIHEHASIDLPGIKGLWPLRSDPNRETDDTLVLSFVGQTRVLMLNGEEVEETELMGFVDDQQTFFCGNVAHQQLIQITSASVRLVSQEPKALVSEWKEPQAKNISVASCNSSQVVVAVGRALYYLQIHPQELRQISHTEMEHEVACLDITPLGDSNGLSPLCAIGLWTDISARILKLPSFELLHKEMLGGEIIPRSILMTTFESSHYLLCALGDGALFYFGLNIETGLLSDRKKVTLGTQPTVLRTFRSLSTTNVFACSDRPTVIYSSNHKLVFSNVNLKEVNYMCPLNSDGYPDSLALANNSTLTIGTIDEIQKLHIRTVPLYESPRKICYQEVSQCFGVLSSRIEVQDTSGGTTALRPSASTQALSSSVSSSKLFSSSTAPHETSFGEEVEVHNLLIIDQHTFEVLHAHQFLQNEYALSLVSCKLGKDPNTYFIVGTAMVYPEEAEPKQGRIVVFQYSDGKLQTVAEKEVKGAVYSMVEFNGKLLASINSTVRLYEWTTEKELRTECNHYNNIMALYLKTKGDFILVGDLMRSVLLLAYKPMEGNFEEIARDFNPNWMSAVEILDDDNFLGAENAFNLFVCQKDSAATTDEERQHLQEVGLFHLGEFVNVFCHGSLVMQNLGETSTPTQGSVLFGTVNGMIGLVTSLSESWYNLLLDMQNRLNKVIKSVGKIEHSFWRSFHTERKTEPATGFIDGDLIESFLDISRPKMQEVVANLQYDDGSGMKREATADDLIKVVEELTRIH", "assay": "Intracellular Ikaros expression in CAR-expressing T cells", "assay_type": "cell-based", "description": "FIGS. 31A-31C show flow cytometry analysis of intracellular Ikaros or Aiolos expression on both CD4+ anti-CD19 CAR-expressing T cells and CD8+ anti-CD19 CAR-expressing T cells. […] Median fluorescence intensity (MFI) values for Ikaros and Aiolos were normalized and calculated as a percentage relative to […] vehicle control."}, "[4]": {"tested_on": "BCMA-expressing RPMI-8226 MM cells", "assay": "Rescue of chronically stimulated anti-BCMA CAR T cells rechallenged with RPMI-8226 MM cells", "assay_type": "cell-based", "conditions": "1 nm or 10 nM during rechallenge", "procedure": "Studies were undertaken to determine whether Compound 2 rescued anti-BCMA CAR T cell function following chronic stimulation. To directly stimulate via CAR engagement to induce chronic stimulation of cells, anti-BCMA CAR T cells were stimulated with BCMA conjugated beads (diameter about 4.5 pm from a 50 μg/ml BCMA-conjugated bead composition, generated as described in Example 9) at a ratio of T cells to beads of 1:1. The cells were then incubated at 37° C., 5% CO2 for 7 days.\nCultures were incubated at 37° C., 5% CO2, and images were taken every 2 hours over 5-7 days with an Essen IncuCyte Zoom live-cell analysis system to track NucLightRed-positive target cells."}, "[5]": {"tested_on": "K562 cells transduced to express CD19", "assay": "Cytolytic activity of anti-CD19 CAR+ T cells against K562-CD19 cells", "conditions": "1-5000 nM, E:T 2.5:1, about 120 hours"}, "RPMI-8226 [6]": {"tested_on": "RPMI-8226", "text": "T cells were isolated by immunoaffinity-based enrichment from leukapheresis samples from healthy donors. Isolated cells were transduced with a viral vector encoding one of various exemplary anti-BCMA CARs. Each anti-BCMA CAR contained a human anti-BCMA scFv, a spacer region, a CD28 transmembrane domain, a 4-1BB-derived intracellular co-signaling sequence, and a CD3-zeta derived intracellular signaling domain. The viral vector construct further encoded a truncated EGFR (EGFRt), which served as a surrogate marker for CAR expression; the EGFRt-coding region was separated from the CAR sequence by a T2A skip sequence. After transduction, cells were expanded and the resulting compositions were frozen by cryopreservation.\nThe target RPMI-8226 cells were labeled with NucLight Red (NLR) to permit their tracking by microscopy. […] Normalized target cell numbers were generated by dividing target cell counts to cell counts at the start of each culture.\nThe studies above were extended on anti-BCMA CAR+ T cells generated from cells from two additional healthy donors. […] Cytolytic activity and cytokine production (IFNγ, IL-2 and TNF-α) were assayed substantially as described above. Absolute changes in cytokine levels relative to the vehicle control were calculated. Experiments were performed 2 to 3 times in each donor."}, "OPM-2 [7]": {"tested_on": "OPM-2", "assay": "OPM-2 human multiple myeloma orthotopic mouse model, Study 1", "assay_type": "in vivo", "procedure": "Mice (NOD.Cg-Prkd^scidIL-2rg^tm1Wjl/SzJ mice (NSG; Jackson Labs)) were injected intravenously (i.v.) with 2×10^6 OPM2 (multiple myeloma) cells transfected with firefly luciferase (OPM2-ffluc). Tumor engraftment was allowed to occur for 13 days prior to staging (14 days before CAR-T cell administration) and verified using bioluminescence imaging.\nIn groups receiving CAR+ T cells, anti-BCMA CAR (generated by transducing cells derived from samples of human donor subjects essentially as described above) were administered at day 0 (day 14 after tumor cell injection), at a dose of either 5×10^5 (low) or 1×10^6 (high) CAR-expressing T cells. Table E1 summarizes the dosing regimens.\nTumor burden in animals among the various groups was monitored by bioluminescence imaging up to day 39 post-CAR+ T cell dosing. For bioluminescence imaging, mice received intraperitoneal (i.p.) injections of luciferin substrate (CaliperLife Sciences, Hopkinton, MA) resuspended in PBS (15 μg/g body weight). The total flux (photon/s) was determined at each time point.\nTable E2 lists median survival (ms) (as assessed at day 56 post-CAR+ T cell administration) and number of mice in group surviving until day 56-post-CAR+ T cell administration, for each animal group assessed in this study."}, "OPM-2 [8]": {"tested_on": "OPM-2", "conditions": "read-out: sensitivity to lenalidomide; cited from earlier work"}, "[9]": {"tested_on": "PD-L1-mediated inhibition", "assay": "Cytokine production with BCMA/PD-L1 conjugated beads", "assay_type": "cell-based, human", "conditions": "1 μM, 24 hours, vs vehicle", "procedure": "In another study, to explore whether the lenalidomide-induced potentiation of CAR T activation and cytokine production could override PD-L1-mediated inhibition, cells were cultured in the presence of BCMA beads generated as described in Example 9, with or without additional conjugation of human recombinant PD-L1-Fc. […] Cytokine production was measured in the supernatant."}, "RPMI-8226 [10]": {"tested_on": "RPMI-8226", "assay": "7-day prestimulation of anti-BCMA CAR-T cells on BCMA beads, phenotype and re-challenge with RPMI-8226", "assay_type": "cell-based, human", "procedure": "Expression of CD25, PD-1, Tim3 and Lag3 on CAR T cells (using an antibody for surrogate CAR marker) cultured under the different conditions then was assessed by flow cytometry.\nPercentage killing was normalized to anti-BCMA CAR T cells prestimulated on beads in the presence of vehicle. Cytokine production was assessed by ELISA from supernatant following culture with target cells for 24 hours. Experiments were performed twice in 3 donors. […] P values were obtained by likelihood ratio tests comparing the full model with the effect of interest against the model without the effect of interest."}, "RPMI-8226 [11]": {"tested_on": "RPMI-8226", "assay": "Cytokine production of anti-BCMA CAR T cells incubated with RPMI-8226 target cells", "assay_type": "cell-based, human", "description": "Culture of T cells not expressing the anti-BCMA CAR (mock) was used as a control."}}, "data": [{"smiles": "Cc1nc2cccc(N)c2c(=O)n1C1CCC(=O)NC1=O", "note": "(stereo not shown) [Compound 1, 3-(5-amino-2-methyl-4-oxo-4H-quinazolin-3-yl)-piperidine-2,6-dione]", "values": [{"measurement": "maximum tolerated dose (MTD)", "setting": "[1]", "value": 4, "unit": "mg"}, {"measurement": "cytolytic activity (tumor cell number over time)", "setting": "[2]; 0. and Compound 1 concurrent, 2.5:1 E:T", "value": "improved"}, {"measurement": "IFN-γ and TNF-α production", "setting": "[2]; 24 hours, both cell lines", "value": "increased relative to vehicle control"}, {"measurement": "IL-2 production", "setting": "[3]; 100 or 1000 nM, 2.5:1 E:T, 24 hours", "value": "increase compared to control"}, {"measurement": "IFN-γ production", "setting": "[3]; 100 or 1000 nM, 2.5:1 E:T, 24 hours, CD8+ CAR-expressing T cells", "value": "concentration dependent increase"}, {"measurement": "cytolytic activity over time", "setting": "[3]; pooled donors, CD8+ CAR-expressing T cells", "value": "limited effect"}, {"measurement": "Ikaros expression in CAR-expressing T cells", "setting": "Ikaros", "value": "decreased in a concentration dependent manner"}, {"measurement": "magnitude of Ikaros loss compared with lenalidomide", "setting": "Ikaros", "value": "greater"}]}, {"smiles": "O=C1CC[C@H](N2Cc3c(OCc4ccc(CN5CCOCC5)cc4)cccc3C2=O)C(=O)N1", "note": "[Compound 2, (S)-3-[4-(4-morpholin-4-ylmethyl-benzyloxy)-1-oxo-1,3-dihydro-isoindol-2-yl]-piperidine-2,6-dione]", "values": [{"measurement": "cytolytic activity of chronically stimulated anti-BCMA CAR T cells", "setting": "[4]; 0.3:1 E:T", "value": "improvement in cytolytic activity"}, {"measurement": "production of IFN-gamma, IL-2 or TNF-alpha", "setting": "[4]; 24 hours", "value": "increased production"}]}, {"smiles": "Nc1cccc2c1CN(C1CCC(=O)NC1=O)C2=O", "note": "(stereo not shown) [lenalidomide, 3-(4-amino-1-oxo-1,3-dihydro-2H-isoindol-2-yl)piperidine-2,6-dione]", "values": [{"measurement": "CAR-mediated cytolytic activity", "setting": "[5]", "value": "reduced"}, {"measurement": "target cell killing by anti-BCMA CAR+ T cells by day 6", "setting": "RPMI-8226 [6]; 1 μM or 10 μM, E:T 0.3:1, vs absence of lenalidomide", "value": "greater degree of target cell killing"}, {"measurement": "treatment effect on CAR T cytolytic activity in co-culture with RPMI-8226", "setting": "RPMI-8226 [6]; three healthy donors and one IMiD-refractory patient", "value": "donor-dependent"}, {"measurement": "tumor growth or tumor burden, lenalidomide alone", "setting": "OPM-2 [7]; 10 mg/kg i.p. daily, no CAR-T cells", "value": "not observed to reduce tumor growth or tumor burden"}, {"measurement": "# animals surviving day 56 post-CART", "setting": "OPM-2 [7]; cell dose 1.00E+06 (hi) or 5.00E+05 (low), lenalidomide 10 mg/kg i.p. daily from day −1 (A) or day 14 (B)", "value": "0/8"}, {"measurement": "Median Survival (assessed at day 6)", "setting": "OPM-2 [7]; cell dose 1.00E+06 (hi) or 5.00E+05 (low), lenalidomide 10 mg/kg i.p. daily from day −1 (A) or day 14 (B), listed as lenalidomide (A)", "value": 28}, {"measurement": "Median Survival (assessed at day 6)", "setting": "OPM-2 [7]; cell dose 1.00E+06 (hi) or 5.00E+05 (low), lenalidomide 10 mg/kg i.p. daily from day −1 (A) or day 14 (B), listed as lenalidomide (B)", "value": 25}, {"measurement": "survival effects in mice treated with anti-BCMA CAR+ T cells", "setting": "OPM-2 [7]; high and low CAR doses, lenalidomide at day −1 (A) or delayed d.14 (B)", "value": "improved survival effects"}, {"measurement": "day post-CAR-T cell injection from which clear differences were observed", "setting": "OPM-2 [7]; higher (1×10^6) dose of CAR+ T cells, lenalidomide B", "value": "30 to 40", "unit": "days"}, {"measurement": "tumor growth and tumor burden in mice administered CAR+ T cells", "setting": "OPM-2 [7]; lenalidomide 10 mg/kg i.p. daily from day −1 (A), both CAR+ T cell doses", "value": "slower tumor growth and reduced tumor burden"}, {"measurement": "tumor growth and tumor burden in mice administered CAR-T cells", "setting": "OPM-2 [7]; lenalidomide from day 14 post-CAR+ T (B), both doses of CAR-T cells", "value": "trend towards slower tumor growth and reduced tumor burden"}, {"measurement": "IC50", "setting": "OPM-2 [8]", "value": 37.4, "unit": "µM"}, {"measurement": "secreted cytokine levels in the presence of PD-L1", "setting": "[9]", "value": "potentiated"}, {"measurement": "percentage of PD-1+ cells in the CD4+ population", "setting": "RPMI-8226 [10]; 1 μM", "value": "decrease"}, {"measurement": "cytolytic function of prestimulated CAR-T cells", "setting": "RPMI-8226 [10]; 1 μM during the prestimulation period", "value": "preserved"}, {"measurement": "cytokine production of prestimulated CAR-T cells", "setting": "RPMI-8226 [10]; 1 μM during the prestimulation period, vs vehicle", "value": "trend toward increased cytokine production"}, {"measurement": "total cell count", "setting": "RPMI-8226 [10]; 1 μM, 7 days on BCMA beads", "value": "did not alter"}, {"measurement": "CAR+ viability", "setting": "RPMI-8226 [10]; 1 μM, 7 days on BCMA beads, 3 healthy donors", "value": "significantly increased"}, {"measurement": "percentage positive for Lag3 expression", "setting": "RPMI-8226 [10]; 1 μM, CD4+ and CD8+ CAR+ populations", "value": "increased"}, {"measurement": "CD25 in CD4+ and CD8+ CAR+ populations", "setting": "RPMI-8226 [10]; 1 μM, all donors", "value": "increased"}, {"measurement": "PD-1 expression of BCMA-CAR-T cells", "setting": "RPMI-8226 [10]; 1 μM, prolonged stimulation", "value": "reduced"}, {"measurement": "surface expression of Tim3 in the CD8+ population", "setting": "RPMI-8226 [10]; 1 μM, three donors", "value": "increased"}, {"measurement": "IL-2, IFNγ and TNF-α in culture supernatants", "setting": "RPMI-8226 [11]; 10 μM, E:T 0.3:1, 48 hours", "value": "increase"}, {"measurement": "cytokine production in RPMI-8226 co-culture", "setting": "RPMI-8226 [11]; all donors and cytokines", "value": "significantly increased"}]}]}
